# Measurements as given in patent publication US9532983B2, “Benzofuran compounds, compositions, kits and/or methods thereof” (Savannah State University, priority 2013, dated 2017).
# Biological target: T1, M4 (Homo sapiens, UniProt P08173)
# T1 construct: expressed in transfected cells
# T1 sequence (P08173 1-479): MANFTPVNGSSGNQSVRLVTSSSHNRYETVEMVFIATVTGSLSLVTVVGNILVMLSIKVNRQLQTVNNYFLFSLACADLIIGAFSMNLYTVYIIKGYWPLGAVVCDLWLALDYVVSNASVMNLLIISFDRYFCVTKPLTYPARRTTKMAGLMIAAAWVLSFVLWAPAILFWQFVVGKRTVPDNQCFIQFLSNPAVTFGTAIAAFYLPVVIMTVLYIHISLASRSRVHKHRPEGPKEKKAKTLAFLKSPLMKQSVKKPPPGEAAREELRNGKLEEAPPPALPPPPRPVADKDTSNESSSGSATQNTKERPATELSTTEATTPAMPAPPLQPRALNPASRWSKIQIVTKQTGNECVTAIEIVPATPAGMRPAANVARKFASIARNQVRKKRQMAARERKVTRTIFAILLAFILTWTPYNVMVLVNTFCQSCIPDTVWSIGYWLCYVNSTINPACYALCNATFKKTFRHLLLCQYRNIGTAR
# Assay: Secondary binding assay, Ki determination: M4
smiles,measurement,value
"COc1cc2oc(C(=O)N(CCCN3CCCCC3)c3ccccc3)c(C)c2cc1OC [KSCM-1, 5,6-Dimethoxy-3-methyl-N-phenyl-N-(3-(piperidin-1-yl)propyl)benzofuran-2-carboxamide]",Ki,2870 nM
